Source: ChEMBL document CHEMBL1157124, “Synthesis and anticancer evaluation of alpha-lipoic acid derivatives” (Bioorg Med Chem Lett, 2010)
Active and inactive are the calls of the source. The calls are words filed in the database; no cut-off is given here.

Experiments:
Type in all cases: functional
Bel-7402 [1] = experiment: Cytotoxicity against human Bel7402 cells assessed as growth inhibition at 100 ug/ml after 24 hrs by MTT assay; details: Bel-7402, 24 h, read-out: GI
KB [2] = experiment: Cytotoxicity against human KB cells assessed as growth inhibition at 1 ug/ml after 24 hrs by MTT assay; details: read-out: GI
[3] = Cytotoxicity against human HO8910 cells assessed as growth inhibition at 10 ug/ml after 24 hrs by MTT assay; details: HO-8910, 24 h, read-out: GI
NCI-H460 [4] = experiment: Cytotoxicity against human NCI-H460 cells assessed as growth inhibition at 0.1 ug/ml after 24 hrs by MTT assay; details: NCI-H460, 24 h, read-out: GI
Bel-7402 [5] = experiment: Cytotoxicity against human Bel7402 cells assessed as growth inhibition at 10 ug/ml after 24 hrs by MTT assay; details: Bel-7402, 24 h, read-out: GI
NCI-H460 [6] = experiment: Cytotoxicity against human NCI-H460 cells assessed as growth inhibition at 100 ug/ml after 24 hrs by MTT assay; details: NCI-H460, 24 h, read-out: GI
NCI-H460 [7] = experiment: Cytotoxicity against human NCI-H460 cells assessed as growth inhibition at 1 ug/ml after 24 hrs by MTT assay; details: NCI-H460, 24 h, read-out: GI
KB [8] = experiment: Cytotoxicity against human KB cells assessed as growth inhibition at 100 ug/ml after 24 hrs by MTT assay; details: read-out: GI
KB [9] = experiment: Cytotoxicity against human KB cells assessed as growth inhibition at 10 ug/ml after 24 hrs by MTT assay; details: read-out: GI
Bel-7402 [10] = experiment: Cytotoxicity against human Bel7402 cells assessed as growth inhibition at 1 ug/ml after 24 hrs by MTT assay; details: Bel-7402, 24 h, read-out: GI
NCI-H460 [11] = experiment: Cytotoxicity against human NCI-H460 cells assessed as growth inhibition at 10 ug/ml after 24 hrs by MTT assay; details: NCI-H460, 24 h, read-out: GI
[12] = Cytotoxicity against human HO8910 cells assessed as growth inhibition at 100 ug/ml after 24 hrs by MTT assay; details: HO-8910, 24 h, read-out: GI
[13] = Cytotoxicity against human HO8910 cells assessed as growth inhibition at 1 ug/ml after 24 hrs by MTT assay; details: HO-8910, 24 h, read-out: GI
KB [14] = experiment: Cytotoxicity against human KB cells assessed as growth inhibition at 0.1 ug/ml after 24 hrs by MTT assay; details: read-out: GI
[15] = Cytotoxicity against human HO8910 cells assessed as growth inhibition at 0.1 ug/ml after 24 hrs by MTT assay; details: HO-8910, 24 h, read-out: GI
Bel-7402 [16] = experiment: Cytotoxicity against human Bel7402 cells assessed as growth inhibition at 0.1 ug/ml after 24 hrs by MTT assay; details: Bel-7402, 24 h, read-out: GI
PC-3 [17] = experiment: Cytotoxicity against human PC3 cells assessed as growth inhibition at 1 ug/ml after 24 hrs by MTT assay; details: for inhibition of growth at 1 µg/mL: PC-3, 24 h, read-out: GI
PC-3 [18] = experiment: Cytotoxicity against human PC3 cells assessed as growth inhibition at 10 ug/ml after 24 hrs by MTT assay; details: for inhibition of growth at 10 µg/mL: PC-3, 24 h, read-out: GI
PC-3 [19] = experiment: Cytotoxicity against human PC3 cells assessed as growth inhibition at 100 ug/ml after 24 hrs by MTT assay; details: PC-3, 24 h, read-out: GI
PC-3 [20] = experiment: Cytotoxicity against human PC3 cells assessed as growth inhibition at 0.1 ug/ml after 24 hrs by MTT assay; details: for inhibition of growth at 0.1 µg/mL: PC-3, 24 h, read-out: GI

Row | Compound | inhibition of growth at 100 µg/mL (Bel-7402 [1]) [%] | inhibition of growth at 1 µg/mL (KB [2]) [%] | inhibition of growth at 10 µg/mL [3] [%] | inhibition of growth at 0.1 µg/mL (NCI-H460 [4]) [%] | inhibition of growth at 10 µg/mL (Bel-7402 [5]) [%] | inhibition of growth at 100 µg/mL (NCI-H460 [6]) [%] | inhibition of growth at 1 µg/mL (NCI-H460 [7]) [%] | inhibition of growth at 100 µg/mL (KB [8]) [%] | inhibition of growth at 10 µg/mL (KB [9]) [%] | inhibition of growth at 1 µg/mL (Bel-7402 [10]) [%] | inhibition of growth at 10 µg/mL (NCI-H460 [11]) [%] | inhibition of growth at 100 µg/mL [12] [%] | inhibition of growth at 1 µg/mL [13] [%] | inhibition of growth at 0.1 µg/mL (KB [14]) [%] | inhibition of growth at 0.1 µg/mL [15] [%] | inhibition of growth at 0.1 µg/mL (Bel-7402 [16]) [%] | other results
1 | O=C(CCCCC(S)CCS)Nc1ccccc1 (stereo not drawn) | 7.67 | 11.6 | 5.49 | 5.5 | 3.72 | 25.4 | 4.3 | 15.8 | 8.62 | 1.32 | 8.37 | 13.7 | 6.38 | 9.49 | 7.37 | 0.85 | –
2 | CC(=O)SCCC(CCCCC(=O)Nc1ccc(Cl)cc1)SC(C)=O (stereo not drawn) | 45.5 | 14.8 | 1.47 | 9.89 | 5.78 | 47.3 | 15.4 | 72 | 18.1 | 3.07 | 14.8 | 58.8 | 0.35 | 11.4 | 1.81 | 9.96 | –
3 | O=C(CCCCC(S)CCS)Nc1ccc(F)cc1 (stereo not drawn) | 11.7 | 8.84 | 6.81 | 5.64 | 6.14 | 41.6 | 6.84 | 28.2 | 13.3 | – | 18.1 | 22.2 | 12.2 | 6.78 | 8.11 | – | –
4 | CC(=O)SCCC(CCCCC(=O)O)SC(C)=O (stereo not drawn) | 8.35 | 12.4 | 1.61 | 9.96 | 9.22 | 11 | 9.89 | 8.03 | 8.88 | 12.8 | 6.04 | – | – | 7.24 | – | 10.3 | –
5 | O=C(O)CCCCC(CCSC(=O)c1ccccc1)SC(=O)c1ccccc1 (stereo not drawn) | 81 | 0.68 | – | – | 2.76 | 72.8 | 0.77 | 89.8 | 2.68 | – | – | 86.7 | 0.29 | – | – | 1.09 | inhibition of growth at 1 µg/mL (PC-3 [17]): 9.86%; inhibition of growth at 10 µg/mL (PC-3 [18]): 7.43%; inhibition of growth at 100 µg/mL (PC-3 [19]): 91.2%; inhibition of growth at 0.1 µg/mL (PC-3 [20]): 9.54%
6 | O=C(CCCCC(S)CCS)Nc1ccc([N+](=O)[O-])cc1 (stereo not drawn) | 33.4 | 0.93 | 8.96 | 5.69 | 14.4 | 39.1 | 4.64 | 41.1 | 13.7 | 1.73 | 13.4 | 51.2 | 0.76 | – | – | 1.88 | –
7 | O=C(CCCCC1CCSS1)Nc1cccc(Cl)c1 (stereo not drawn) | 68.2 | – | – | 6.08 | 4.15 | 65.2 | 8.85 | 76.5 | 7.88 | 1.11 | 10.1 | 68.3 | – | 2.85 | – | 0.33 | inhibition of growth at 1 µg/mL (PC-3 [17]): 8.44%; inhibition of growth at 10 µg/mL (PC-3 [18]): 13.8%; inhibition of growth at 100 µg/mL (PC-3 [19]): 79.5%; inhibition of growth at 0.1 µg/mL (PC-3 [20]): 17.1%
8 | O=C(CCCCC(S)CCS)Nc1cccc(C(F)(F)F)c1 (stereo not drawn) | 25.3 | – | 8.86 | 11.9 | 1.21 | 32.1 | 8.26 | 30.5 | 1.97 | 1.66 | 11.4 | 34.8 | 13.7 | 8.41 | 10.8 | 2.85 | –
9 | O=C(CCCCC(CCSC(=O)c1ccccc1)SC(=O)c1ccccc1)Nc1ccccc1Cl (stereo not drawn) | – | 3.05 | 1.33 | 15.1 | 6.63 | – | 14.4 | – | 2.53 | 7.37 | 12.1 | – | 2.35 | 3.62 | – | 5.72 | –
10 | O=C(CCCCC(S)CCS)NO (stereo not drawn) | 47.5 | 10.6 | 26.2 | 5.7 | 28.2 | 43.7 | 1.17 | 58 | 41.5 | 9.12 | 17.7 | 49.3 | – | 7.62 | – | 5.96 | –
11 | O=C(CCCC[C@@H]1CCSS1)Nc1ccc([N+](=O)[O-])c(C(F)(F)F)c1 | 43.4 | – | – | – | – | 35.4 | – | 49.1 | – | – | – | 39.2 | – | – | – | – | growth inhibition (GI) (PC-3 [17]): inactive; growth inhibition (GI) (PC-3 [18]): inactive; inhibition of growth at 100 µg/mL (PC-3 [19]): 59%; growth inhibition (GI) (PC-3 [20]): inactive
12 | O=C(CCCCC1CCSS1)Nc1ccc([N+](=O)[O-])c(C(F)(F)F)c1 (stereo not drawn) | 23.9 | – | – | 18.8 | – | 51.6 | 19.1 | 49.5 | – | 7.46 | 12 | 47.6 | 0.96 | 4.5 | – | 5.04 | growth inhibition (GI) (PC-3 [17]): inactive; growth inhibition (GI) (PC-3 [18]): inactive; inhibition of growth at 100 µg/mL (PC-3 [19]): 90.2%; inhibition of growth at 0.1 µg/mL (PC-3 [20]): 5.37%
13 | O=C(CCCCC1CCSS1)Nc1ccccc1Cl (stereo not drawn) | 4.74 | – | 4.66 | 8 | – | 3.38 | 10.1 | 0.72 | – | 5.33 | 14.6 | – | 7.74 | 5.11 | 8.17 | 6.83 | –
14 | COc1ccc(NC(=O)CCCCC2CCSS2)cc1 (stereo not drawn) | 38.7 | 5.03 | 6.34 | 3.82 | 6.32 | 45.7 | 0.51 | 48.3 | 2.94 | 7.93 | 9.82 | 43.8 | 3.54 | 4 | 1.64 | 5.48 | –
15 | CC(=O)SCCC(CCCCC(=O)Nc1ccccc1)SC(C)=O (stereo not drawn) | 14.1 | 1.68 | 3.2 | 15.4 | – | 44.8 | 13.1 | 22.9 | 2.5 | 2.84 | 14.2 | 22.3 | 10.6 | 7.24 | 8.33 | – | –
